Test results: ChEMBL document CHEMBL1909046, “DrugMatrix in vitro pharmacology data”

How the values were obtained:
[1] = molecular target: T1, Alpha-2A adrenergic receptor (Homo sapiens, UniProt P08913); type: cell membranes, Sf9, Membrane; also: in other assays of this panel Not Active means under 50% inhibition at 10 µM
T1 sequence (P08913 whole entry): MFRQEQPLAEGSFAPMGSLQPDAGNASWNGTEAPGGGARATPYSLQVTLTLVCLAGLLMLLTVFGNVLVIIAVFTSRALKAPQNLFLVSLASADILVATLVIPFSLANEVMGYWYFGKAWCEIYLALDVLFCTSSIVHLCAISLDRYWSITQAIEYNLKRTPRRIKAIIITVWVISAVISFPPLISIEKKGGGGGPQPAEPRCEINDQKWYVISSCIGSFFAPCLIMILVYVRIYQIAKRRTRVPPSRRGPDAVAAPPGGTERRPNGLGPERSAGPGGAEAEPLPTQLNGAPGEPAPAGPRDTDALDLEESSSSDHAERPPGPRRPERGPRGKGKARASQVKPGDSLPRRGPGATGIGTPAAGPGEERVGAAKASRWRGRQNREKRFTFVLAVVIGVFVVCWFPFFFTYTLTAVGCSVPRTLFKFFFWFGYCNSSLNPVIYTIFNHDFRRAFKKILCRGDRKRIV

[2] = molecular target: 5-hydroxytryptamine receptor 2B (Homo sapiens, UniProt P41595); type: cell membranes, CHO-K1, Membrane; conditions: for Ki: read-out: Ki; as to all read-outs here: in other assays of this panel Not Active means under 50% inhibition at 10 µM
Chain of 5-hydroxytryptamine receptor 2B (P41595 whole entry): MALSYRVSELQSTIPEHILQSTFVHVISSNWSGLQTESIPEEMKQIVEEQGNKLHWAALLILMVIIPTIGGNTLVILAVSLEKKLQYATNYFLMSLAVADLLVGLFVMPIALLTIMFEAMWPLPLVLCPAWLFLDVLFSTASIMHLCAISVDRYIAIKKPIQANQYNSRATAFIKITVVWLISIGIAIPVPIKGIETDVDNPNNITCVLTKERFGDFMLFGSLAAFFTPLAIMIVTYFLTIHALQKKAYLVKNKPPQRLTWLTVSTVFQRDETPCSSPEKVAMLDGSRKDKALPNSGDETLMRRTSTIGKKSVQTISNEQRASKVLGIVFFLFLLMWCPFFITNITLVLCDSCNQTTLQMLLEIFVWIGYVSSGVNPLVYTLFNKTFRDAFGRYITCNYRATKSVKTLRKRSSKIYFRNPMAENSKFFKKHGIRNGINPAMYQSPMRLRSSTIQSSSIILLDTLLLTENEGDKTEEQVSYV

[3] = DRUGMATRIX: Serotonin (5-Hydroxytryptamine) 5-HT3 radioligand binding (ligand: [3H] GR-65630); type: cell membranes, Membrane; conditions: hek293; Not Active = under 50% inhibition at 10 µM
[4] = molecular target: T2, 3-hydroxy-3-methylglutaryl-coenzyme A reductase (Homo sapiens, UniProt P04035); parameters: species or system Escherichia coli;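 also: enzyme inhibition assay of HMG-CoA reductase using radiolabeled [14C]HMG-CoA as substrate; in other assays of this panel Not Active means under 50% inhibition at 10 µM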
T2 sequence (P04035 whole entry): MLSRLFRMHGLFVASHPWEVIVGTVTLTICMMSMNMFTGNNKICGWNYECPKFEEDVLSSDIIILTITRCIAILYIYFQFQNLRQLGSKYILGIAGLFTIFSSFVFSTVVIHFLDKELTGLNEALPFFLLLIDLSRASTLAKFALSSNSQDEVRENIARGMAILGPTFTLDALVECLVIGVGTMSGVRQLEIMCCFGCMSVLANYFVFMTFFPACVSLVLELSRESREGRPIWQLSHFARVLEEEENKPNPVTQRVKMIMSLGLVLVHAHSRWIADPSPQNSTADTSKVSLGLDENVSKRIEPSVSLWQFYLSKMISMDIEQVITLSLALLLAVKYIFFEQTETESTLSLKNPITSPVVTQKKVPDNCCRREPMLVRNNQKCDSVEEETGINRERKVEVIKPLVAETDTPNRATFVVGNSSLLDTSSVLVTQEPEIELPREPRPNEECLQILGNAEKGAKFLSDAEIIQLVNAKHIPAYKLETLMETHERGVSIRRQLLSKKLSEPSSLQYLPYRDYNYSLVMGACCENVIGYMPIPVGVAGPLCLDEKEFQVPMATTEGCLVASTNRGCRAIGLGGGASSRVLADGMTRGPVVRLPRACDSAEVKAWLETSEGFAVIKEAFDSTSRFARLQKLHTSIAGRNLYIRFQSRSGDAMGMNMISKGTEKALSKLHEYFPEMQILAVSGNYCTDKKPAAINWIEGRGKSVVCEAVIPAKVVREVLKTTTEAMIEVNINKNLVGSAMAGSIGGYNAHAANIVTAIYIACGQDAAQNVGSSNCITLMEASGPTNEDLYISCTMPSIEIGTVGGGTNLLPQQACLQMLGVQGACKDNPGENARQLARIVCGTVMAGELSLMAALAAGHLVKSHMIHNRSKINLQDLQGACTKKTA

[5] = molecular target: T3, Nitric oxide synthase, inducible (Mus musculus, UniProt P29477); parameters: species or system Escherichia coli;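 also: inhibition of iNOS enzyme activity measured with L-arginine as substrate; in other assays of this panel Not Active means under 50% inhibition at 10 µM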
T3 sequence (P29477 whole entry): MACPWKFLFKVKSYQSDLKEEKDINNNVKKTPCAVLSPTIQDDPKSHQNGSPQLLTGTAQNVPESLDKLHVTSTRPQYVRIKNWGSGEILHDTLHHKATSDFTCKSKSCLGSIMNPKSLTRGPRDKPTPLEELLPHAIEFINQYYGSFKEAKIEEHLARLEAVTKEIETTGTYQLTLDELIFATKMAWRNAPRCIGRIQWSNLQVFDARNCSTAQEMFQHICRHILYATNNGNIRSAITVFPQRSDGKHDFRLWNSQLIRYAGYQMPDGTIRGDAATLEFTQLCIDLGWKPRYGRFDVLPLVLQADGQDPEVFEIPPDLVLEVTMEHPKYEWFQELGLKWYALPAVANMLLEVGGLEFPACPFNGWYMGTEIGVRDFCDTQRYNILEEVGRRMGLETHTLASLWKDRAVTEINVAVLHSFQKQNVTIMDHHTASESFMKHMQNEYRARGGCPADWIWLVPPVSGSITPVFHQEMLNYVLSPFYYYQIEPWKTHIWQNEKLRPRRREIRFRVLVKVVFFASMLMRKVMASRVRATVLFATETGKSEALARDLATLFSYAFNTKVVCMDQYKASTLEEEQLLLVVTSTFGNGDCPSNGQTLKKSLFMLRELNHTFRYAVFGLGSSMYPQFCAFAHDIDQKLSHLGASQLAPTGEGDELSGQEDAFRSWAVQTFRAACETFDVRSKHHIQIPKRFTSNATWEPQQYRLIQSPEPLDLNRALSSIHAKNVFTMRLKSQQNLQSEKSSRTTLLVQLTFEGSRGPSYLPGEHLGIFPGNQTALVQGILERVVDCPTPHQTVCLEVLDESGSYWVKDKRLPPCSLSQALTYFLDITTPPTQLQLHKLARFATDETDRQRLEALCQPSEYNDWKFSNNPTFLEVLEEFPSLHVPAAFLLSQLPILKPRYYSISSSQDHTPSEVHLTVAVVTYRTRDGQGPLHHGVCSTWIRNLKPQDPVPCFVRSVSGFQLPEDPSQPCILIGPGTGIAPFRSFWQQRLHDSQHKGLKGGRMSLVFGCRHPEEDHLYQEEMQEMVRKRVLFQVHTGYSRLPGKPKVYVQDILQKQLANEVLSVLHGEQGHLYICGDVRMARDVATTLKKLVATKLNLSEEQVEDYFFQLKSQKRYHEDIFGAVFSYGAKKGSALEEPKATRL

[6] = molecular target: 5-hydroxytryptamine receptor 1B (Rattus norvegicus, UniProt P28564); type: cell membranes, Wistar, Cerebral cortex, Membrane; also: in other assays of this panel Not Active means under 50% inhibition at 10 µM
Chain of 5-hydroxytryptamine receptor 1B (P28564 whole entry): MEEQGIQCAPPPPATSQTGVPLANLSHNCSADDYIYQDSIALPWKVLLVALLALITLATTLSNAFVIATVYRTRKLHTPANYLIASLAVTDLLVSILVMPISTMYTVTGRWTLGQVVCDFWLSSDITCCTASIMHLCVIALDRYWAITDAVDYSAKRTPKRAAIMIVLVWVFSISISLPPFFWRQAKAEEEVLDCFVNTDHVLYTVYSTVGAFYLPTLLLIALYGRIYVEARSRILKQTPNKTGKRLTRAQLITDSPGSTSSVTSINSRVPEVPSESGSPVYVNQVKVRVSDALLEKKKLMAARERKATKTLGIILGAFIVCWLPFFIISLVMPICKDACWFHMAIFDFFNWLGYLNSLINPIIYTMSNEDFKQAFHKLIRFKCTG

Row | Structure (SMILES) | IC50 ([1]; sf9) | IC50 ([2]; read-out: IC50) | Ki [2] | IC50 [3] | Ki [3] | IC50 [4] | IC50 [5] | IC50 [6] | IC50 ([2]; cho-k1) | IC50 ([1]; read-out: IC50) | Ki ([1]; read-out: Ki)
1 | CC(O)COC[C@H]1O[C@@H]2O[C@H]3[C@H](O)[C@@H](O)[C@@H](O[C@H]4[C@H](O)[C@@H](O)[C@@H](O[C@H]5[C@H](O)[C@@H](O)[C@@H](O[C@H]6[C@H](O)[C@@H](O)[C@@H](O[C@H]7[C@H](O)[C@@H](O)[C@@H](O[C@H]8[C@H](O)[C@@H](O)[C@@H](O[C@H]1[C@H](O)[C@H]2O)O[C@@H]8COCC(C)O)O[C@@H]7COCC(C)O)O[C@@H]6COCC(C)O)O[C@@H]5COCC(C)O)O[C@@H]4COCC(C)O)O[C@@H]3COCC(C)O (stereo partly drawn) [2-HYDROXYPROPYL-BETA-CYCLODEXTRIN] | Not Active | 63 nM | 40 nM | Not Active | Not Active | Not Active | Not Active | Not Active |  |  | 
2 | N[C@@H](Cn1ccc(=O)c(O)c1)C(=O)O [L-MIMOSINE] | Not Active |  |  | Not Active | Not Active | Not Active | Not Active | Not Active | Not Active |  | 
3 | CS(=O)(=O)Nc1ccc([N+](=O)[O-])cc1Oc1ccccc1 [NIMESULIDE] | Not Active |  |  | Not Active | Not Active | Not Active | Not Active | Not Active | Not Active |  | 
4 | C[N+](C)(C)C[C@H](O)CC(=O)[O-] [LEVOCARNITINE] | Not Active |  |  | Not Active | Not Active | Not Active | Not Active | Not Active | Not Active |  | 
5 | O=C(O)c1cc(-c2ccc(F)cc2F)ccc1O [DIFLUNISAL] | Not Active |  |  | Not Active | Not Active | Not Active | Not Active | Not Active | Not Active |  | 
6 | CN1CCN(C(c2ccccc2)c2ccccc2)CC1 [CYCLIZINE] |  | 373 nM | 238 nM | Not Active | Not Active | Not Active | Not Active | Not Active |  | 1550 nM | 582 nM
7 | CC(C)(C)NCC(O)COc1cccc2c1CC(O)C(O)C2 (stereo not drawn) [NADOLOL] | Not Active |  |  | Not Active | Not Active | Not Active | Not Active | Not Active | Not Active |  | 
8 | CCCNC(=O)NS(=O)(=O)c1ccc(Cl)cc1 [CHLORPROPAMIDE] | Not Active |  |  | Not Active | Not Active | Not Active | Not Active | Not Active | Not Active |  | 
9 | CO/N=C(\C(=O)N[C@@H]1C(=O)N2C(C(=O)O)=C(COC(C)=O)CS[C@H]12)c1csc(N)n1 [CEFOTAXIME] | Not Active |  |  | Not Active | Not Active | Not Active | Not Active | Not Active | Not Active |  | 
10 | Nc1cc(-c2ccncc2)c[nH]c1=O [INAMRINONE] | Not Active |  |  | Not Active | Not Active | Not Active | Not Active | Not Active | Not Active |  | 
